Reference: ChEMBL document CHEMBL1201862, “PubChem BioAssay data set” (2004)
Activity calls are given as the source filed them.

What was measured:
[1] = biological target: ATP-dependent molecular chaperone HSP82 (Candida albicans (strain WO-1) (Yeast), UniProt C4YTQ8); test: steroid-induced GRE reporter decrease in yeast – S. cerevisiae, luminescence, Hsp90 inhibitor project, dose response (AID 2400); type: functional, cell-based;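 further: beta-galactosidase luminescence from glucocorticoid response element reporter as proxy for Hsp90 function; inhibitor potency where signal loss means Hsp90 inhibition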
Sequence of ATP-dependent molecular chaperone HSP82 (C4YTQ8 whole entry): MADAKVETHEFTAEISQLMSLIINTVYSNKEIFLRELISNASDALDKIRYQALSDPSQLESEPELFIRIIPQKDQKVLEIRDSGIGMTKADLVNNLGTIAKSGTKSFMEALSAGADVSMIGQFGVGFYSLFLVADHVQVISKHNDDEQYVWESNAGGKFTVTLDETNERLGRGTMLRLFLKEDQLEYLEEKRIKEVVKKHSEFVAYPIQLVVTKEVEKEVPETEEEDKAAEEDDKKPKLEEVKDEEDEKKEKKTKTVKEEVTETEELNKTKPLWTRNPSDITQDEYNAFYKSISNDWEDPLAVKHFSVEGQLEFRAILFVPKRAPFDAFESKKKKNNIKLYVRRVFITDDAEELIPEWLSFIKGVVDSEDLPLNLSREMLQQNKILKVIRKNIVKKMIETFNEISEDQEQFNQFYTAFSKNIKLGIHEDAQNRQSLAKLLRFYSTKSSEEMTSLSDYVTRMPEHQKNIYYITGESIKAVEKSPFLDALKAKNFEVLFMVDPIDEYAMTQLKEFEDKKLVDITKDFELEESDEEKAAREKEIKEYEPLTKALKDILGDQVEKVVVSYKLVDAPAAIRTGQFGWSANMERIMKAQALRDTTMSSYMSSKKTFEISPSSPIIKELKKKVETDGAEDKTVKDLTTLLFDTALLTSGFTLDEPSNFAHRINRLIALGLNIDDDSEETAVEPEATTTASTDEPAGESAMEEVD

[2] = NIH-3T3 fibroblast cytotoxicity, dose response, cytotoxicity control, cell-based, fluorescence, Alamar Blue, secondary assay (AID 2327); type: functional;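 further: NIH-3T3 mouse fibroblasts cultured with fluconazole at 8 µg/mL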
[3] = biological target: T1, Serine/threonine-protein phosphatase (Candida dubliniensis (strain CD36 / CBS 7987 / NCPF 3949 / NRRLY-17841) (Yeast), UniProt B9W6M3); test: blockers of CaCl2-induced CDRE-lacZ signaling – S. cerevisiae, luminescence, secondary, dose response (AID 2388); type: functional, cell-based;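 further: yeast reporter cells carrying a calcineurin-responsive lacZ construct stimulated with calcium chloride; luminescent beta-galactosidase reporter signal in whole cells rather than isolated phosphatase activity; potency for inhibition where a drop in reporter signal means calcineurin blockade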
T1 sequence (B9W6M3 whole entry): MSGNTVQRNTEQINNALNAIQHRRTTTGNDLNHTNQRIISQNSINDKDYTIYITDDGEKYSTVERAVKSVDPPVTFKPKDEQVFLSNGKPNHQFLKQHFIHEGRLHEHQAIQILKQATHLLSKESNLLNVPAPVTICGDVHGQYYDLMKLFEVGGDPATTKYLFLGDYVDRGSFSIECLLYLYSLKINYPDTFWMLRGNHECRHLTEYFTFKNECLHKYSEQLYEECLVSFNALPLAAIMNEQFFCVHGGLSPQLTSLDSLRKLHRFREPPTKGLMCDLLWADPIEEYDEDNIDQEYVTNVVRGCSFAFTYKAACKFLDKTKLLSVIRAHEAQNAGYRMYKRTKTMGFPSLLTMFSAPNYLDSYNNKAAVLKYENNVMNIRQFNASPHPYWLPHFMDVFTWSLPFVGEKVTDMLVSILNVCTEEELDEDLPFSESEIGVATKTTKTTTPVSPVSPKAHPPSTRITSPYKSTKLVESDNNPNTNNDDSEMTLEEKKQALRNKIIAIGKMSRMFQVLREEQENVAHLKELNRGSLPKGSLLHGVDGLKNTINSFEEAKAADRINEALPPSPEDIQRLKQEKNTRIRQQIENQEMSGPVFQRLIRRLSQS

[4] = fluconazole-exposed Candida albicans growth modulators – fluorescence, retest, confirmation (AID 2467); type: functional, cell-based
[5] = biological target: Genome polyprotein (dengue virus type 2, UniProt P29990); test: flavivirus cap methylation enzyme inhibition – biochemical, confirmation dose response, primary screen (AID 588689); type: functional
Sequence of Genome polyprotein (P29990 2492-3391 limits assumed): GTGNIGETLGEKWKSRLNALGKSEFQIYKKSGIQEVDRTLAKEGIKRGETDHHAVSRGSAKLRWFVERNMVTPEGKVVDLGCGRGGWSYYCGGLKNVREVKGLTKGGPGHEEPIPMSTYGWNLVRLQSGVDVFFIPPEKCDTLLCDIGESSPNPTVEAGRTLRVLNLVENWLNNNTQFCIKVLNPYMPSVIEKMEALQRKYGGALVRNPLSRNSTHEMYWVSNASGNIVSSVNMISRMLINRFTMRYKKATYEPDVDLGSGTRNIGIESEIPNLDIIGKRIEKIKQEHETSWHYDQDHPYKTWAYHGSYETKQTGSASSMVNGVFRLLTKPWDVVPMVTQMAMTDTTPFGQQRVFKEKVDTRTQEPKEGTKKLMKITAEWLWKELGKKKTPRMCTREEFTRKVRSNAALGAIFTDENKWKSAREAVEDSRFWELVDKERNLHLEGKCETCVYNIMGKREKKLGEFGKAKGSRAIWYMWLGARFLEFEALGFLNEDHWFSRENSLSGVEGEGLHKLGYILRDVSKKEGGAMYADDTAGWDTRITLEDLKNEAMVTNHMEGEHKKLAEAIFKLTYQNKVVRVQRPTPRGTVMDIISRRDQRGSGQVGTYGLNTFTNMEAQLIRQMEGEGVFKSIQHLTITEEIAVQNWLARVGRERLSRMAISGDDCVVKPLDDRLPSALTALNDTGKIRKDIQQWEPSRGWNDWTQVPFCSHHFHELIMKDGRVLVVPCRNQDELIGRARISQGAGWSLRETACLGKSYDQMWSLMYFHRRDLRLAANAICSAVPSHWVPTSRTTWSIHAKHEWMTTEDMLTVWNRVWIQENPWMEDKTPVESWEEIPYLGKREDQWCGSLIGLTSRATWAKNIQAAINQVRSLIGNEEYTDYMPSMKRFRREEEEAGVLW

[6] = MIN6 cell viability loss – mouse insulinoma, cytotoxicity control, dose response (AID 2122); type: functional;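 further: confirmatory high-throughput counterscreen run to flag cytotoxic compounds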
[7] = decrease of insulin promoter-GFP reporter – imaging, high-content screening, mouse beta cells (AID 1628); type: functional; settings: MIN6
[8] = biological target: T2, Microphthalmia-associated transcription factor (Homo sapiens, UniProt O75030); test: reducers of TRPM1 reporter luminescence, concentration series – cell-based, SK-MEL-5, cherry-picked, set 3, MITF inhibitor project, dose response (AID 493073); type: functional;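 further: SK-MEL-5 melanoma cells with luciferase driven by the MITF target TRPM1 promoter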
T2 sequence (O75030 whole entry): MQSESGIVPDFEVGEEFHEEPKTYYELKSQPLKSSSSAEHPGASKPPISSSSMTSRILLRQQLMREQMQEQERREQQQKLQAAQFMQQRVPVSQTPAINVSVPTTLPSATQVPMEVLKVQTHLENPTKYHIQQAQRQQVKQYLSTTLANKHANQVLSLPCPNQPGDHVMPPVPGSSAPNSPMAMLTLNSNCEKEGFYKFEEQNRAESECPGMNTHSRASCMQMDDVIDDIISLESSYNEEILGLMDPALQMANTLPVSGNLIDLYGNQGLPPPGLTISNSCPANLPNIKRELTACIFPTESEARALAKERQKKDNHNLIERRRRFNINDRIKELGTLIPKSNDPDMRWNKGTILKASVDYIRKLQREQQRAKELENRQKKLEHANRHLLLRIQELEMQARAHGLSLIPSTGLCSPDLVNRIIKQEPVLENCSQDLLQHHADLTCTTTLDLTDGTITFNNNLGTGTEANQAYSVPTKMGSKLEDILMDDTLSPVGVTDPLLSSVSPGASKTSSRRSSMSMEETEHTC

[9] = viability of HCT116 lacking mutant beta-catenin – cell-based, human colon tumor, dose response (AID 1045); type: functional;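 further: HCT116 colon tumor cells with beta catenin knocked out; cells exposed to compound for 60 hours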
[10] = reduced cellular PGC1a acetyl-lysine signal – cell-based, cherry-picked samples, dose response (AID 720514); type: functional;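 further: potency may reflect raised or lowered acetylation signal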
[11] = microbe, parasite or virus in culture; type: functional; settings: Mycobacterium tuberculosis
[12] = viability loss in Vero cells – cytotoxicity control for Vif-APOBEC3G degradation inhibitor project, dose response (AID 1117358); type: functional; settings: Vero
[13] = system: A-375; test: MITF: Counter assay: A375 proliferation Measured in Cell-Based System Using Plate Reader - 2084-03_Inhibitor_Dose_DryPowder_Activity. [Related pubchem assays (depositor defined):AID488944]; type: functional; settings: Homo sapiens
[14] = viability of PTEN-deleted HCT116 cells – cell-based, HCT116 PTEN knockout, dose response (AID 1047); type: functional;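 further: HCT116 colon tumor cells with PTEN knocked out; cells exposed to compound for 60 hours before readout; potency for loss of cell viability measured by luminescence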
[15] = biological target: T3, Nuclear receptor subfamily 0 group B member 1 (Homo sapiens, UniProt P51843); test: Luminescence-based cell-based high throughput dose response assay for inhibitors of the orphan nuclear receptor subfamily 0, group B, member 1 (DAX1; NR0B1). [Related pubchem assays (depositor defined):AID504766, AID504790]; type: functional
T3 sequence (P51843 whole entry): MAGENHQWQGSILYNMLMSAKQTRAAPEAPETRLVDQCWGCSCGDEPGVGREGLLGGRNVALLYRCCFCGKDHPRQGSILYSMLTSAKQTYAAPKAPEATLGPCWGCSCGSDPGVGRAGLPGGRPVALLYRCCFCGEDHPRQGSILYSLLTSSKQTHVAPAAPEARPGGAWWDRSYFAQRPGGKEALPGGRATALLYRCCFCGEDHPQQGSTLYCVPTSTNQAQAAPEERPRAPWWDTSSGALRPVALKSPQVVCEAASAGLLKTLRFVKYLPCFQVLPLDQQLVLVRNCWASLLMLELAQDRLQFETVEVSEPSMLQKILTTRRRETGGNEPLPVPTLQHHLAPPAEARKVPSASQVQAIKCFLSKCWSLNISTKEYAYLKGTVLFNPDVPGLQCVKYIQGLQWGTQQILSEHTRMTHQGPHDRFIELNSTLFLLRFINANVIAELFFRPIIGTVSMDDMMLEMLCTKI

[16] = system: HEK293; test: cells; type: functional, cell-based; settings: Homo sapiens
[17] = biological target: FAD-linked sulfhydryl oxidase ALR (Homo sapiens, UniProt P55789); test: ALR-catalysed DTT oxidation blockers – biochemical, H2O2 detection, luminescence, cherry-pick, dose response (AID 493248)
Sequence of FAD-linked sulfhydryl oxidase ALR (P55789 whole entry): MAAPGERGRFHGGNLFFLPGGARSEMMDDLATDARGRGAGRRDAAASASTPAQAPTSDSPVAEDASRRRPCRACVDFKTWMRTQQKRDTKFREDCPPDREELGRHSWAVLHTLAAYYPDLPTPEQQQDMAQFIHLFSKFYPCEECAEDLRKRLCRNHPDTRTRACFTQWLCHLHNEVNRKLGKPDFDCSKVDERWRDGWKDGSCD

[18] = biological target: T4, Corticotropin-releasing factor receptor 2/Corticotropin-releasing factor-binding protein (Homo sapiens, UniProt P24387+Q13324); test: activators of CRF receptor 2 with binding protein – uHTS hits, confirmation (AID 602473); type: functional; settings: read-out: EC50_Mean
T4 sequence (Q13324 whole entry): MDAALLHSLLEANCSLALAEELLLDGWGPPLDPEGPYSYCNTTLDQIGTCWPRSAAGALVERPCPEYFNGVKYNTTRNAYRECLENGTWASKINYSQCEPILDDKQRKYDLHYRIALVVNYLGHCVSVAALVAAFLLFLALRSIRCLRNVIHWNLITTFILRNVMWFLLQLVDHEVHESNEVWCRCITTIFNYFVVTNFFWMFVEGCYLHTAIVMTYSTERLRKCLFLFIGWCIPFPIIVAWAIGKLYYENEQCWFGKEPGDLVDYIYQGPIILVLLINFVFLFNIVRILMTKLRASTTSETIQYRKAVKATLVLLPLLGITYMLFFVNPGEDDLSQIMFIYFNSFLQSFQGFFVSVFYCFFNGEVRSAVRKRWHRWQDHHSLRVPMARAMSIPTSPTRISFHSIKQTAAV
T4 sequence (P24387 whole entry): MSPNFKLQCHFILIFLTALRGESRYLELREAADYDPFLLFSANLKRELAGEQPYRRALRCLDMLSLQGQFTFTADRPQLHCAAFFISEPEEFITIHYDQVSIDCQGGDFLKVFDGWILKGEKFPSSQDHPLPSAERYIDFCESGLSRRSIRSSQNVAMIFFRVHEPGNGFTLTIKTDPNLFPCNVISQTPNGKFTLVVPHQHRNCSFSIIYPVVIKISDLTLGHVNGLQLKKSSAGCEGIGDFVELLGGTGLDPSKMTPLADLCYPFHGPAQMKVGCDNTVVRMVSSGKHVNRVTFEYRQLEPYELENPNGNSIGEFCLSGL

[19] = biological target: T4, Corticotropin-releasing factor receptor 2/Corticotropin-releasing factor-binding protein; test: Dose Response confirmation of uHTS hits for small molecule antagonists of the CRF-binding protein and CRF-R2 receptor complex.; type: functional; settings: read-out: IC50_Mean
[20] = Vero E6 cell cytotoxicity, dose response, cytotoxicity control for non-replicating M. tuberculosis project, secondary assay (AID 492998); type: functional, VeroE6; settings: Vero C1008
[21] = biological target: T5, Streptokinase A (Streptococcus pyogenes serotype M1, UniProt P10520); test: viability-normalized secreted streptokinase activity reduction – plasminogen activation absorbance, OD405, dose response (AID 1914); type: functional, Streptococcus pyogenes M1 GAS;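 further: secreted streptokinase activity via plasminogen activation per viability signal from cell pellet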
T5 sequence (P10520 whole entry): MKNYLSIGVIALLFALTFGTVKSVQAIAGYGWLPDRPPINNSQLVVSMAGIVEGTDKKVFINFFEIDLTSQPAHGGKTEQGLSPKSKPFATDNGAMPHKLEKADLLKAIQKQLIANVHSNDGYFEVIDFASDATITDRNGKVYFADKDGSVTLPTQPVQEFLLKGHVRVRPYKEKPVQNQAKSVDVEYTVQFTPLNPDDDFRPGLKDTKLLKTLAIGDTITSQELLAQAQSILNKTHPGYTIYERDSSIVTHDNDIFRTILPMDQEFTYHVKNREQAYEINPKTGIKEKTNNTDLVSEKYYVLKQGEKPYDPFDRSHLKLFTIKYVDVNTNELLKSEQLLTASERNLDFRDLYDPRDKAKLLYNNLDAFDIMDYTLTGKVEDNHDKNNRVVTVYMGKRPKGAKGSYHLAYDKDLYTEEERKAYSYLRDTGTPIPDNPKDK

[22] = system: Streptococcus sp. 'group A'; test: Streptococcus pyogenes SK(-)GAS viability under kanamycin – luminescence, BacTiterGlo, confirmation, counter-screen for streptokinase expression inhibitor project, dose response (AID 1900); type: functional, organism-based
[23] = cells; type: functional
[24] = THP-1 cell cytotoxicity, dose response, cytotoxicity control for non-replicating M. tuberculosis project (AID 489025); type: functional
[25] = system: Streptococcus; test: GAS UMAA2166 growth inhibition – luminescence, BacTiterGlo, counter-screen for streptokinase expression inhibitor project, dose response (AID 1915); type: functional, organism-based;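 further: potency for reduction of bacterial viability or growth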
[26] = biological target: Mu-type opioid receptor (Homo sapiens, UniProt P35372); test: (§1) Counterscreen for agonists of heterodimerization of the mu 1 (OPRM1) and delta 1 (OPRD1) opioid receptors: Luminescence-based cell-based high throughput dose response assay to identify agonists of OPRM1 homodimerization.; type: functional
Sequence of Mu-type opioid receptor (P35372 whole entry): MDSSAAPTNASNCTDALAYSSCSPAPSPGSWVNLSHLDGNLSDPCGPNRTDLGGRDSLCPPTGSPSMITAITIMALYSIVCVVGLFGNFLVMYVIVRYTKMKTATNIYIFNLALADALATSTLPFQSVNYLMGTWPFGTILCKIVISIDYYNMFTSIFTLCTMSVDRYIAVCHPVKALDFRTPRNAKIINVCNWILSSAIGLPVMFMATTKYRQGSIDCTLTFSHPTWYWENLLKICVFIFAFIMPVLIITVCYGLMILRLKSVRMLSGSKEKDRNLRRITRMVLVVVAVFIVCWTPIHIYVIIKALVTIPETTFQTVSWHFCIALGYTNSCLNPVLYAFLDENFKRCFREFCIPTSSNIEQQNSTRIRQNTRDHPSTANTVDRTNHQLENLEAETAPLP

[27] = biological target: Delta-type opioid receptor (Homo sapiens, UniProt P41143); test: as §1, with “of OPRD1” for “of OPRM1”, “homodimerization. [Related pubchem assays (depositor defined):AID504326, AID504355, AID504692, AID504904, AID504905]” for “homodimerization.”; type: functional
Sequence of Delta-type opioid receptor (P41143 whole entry): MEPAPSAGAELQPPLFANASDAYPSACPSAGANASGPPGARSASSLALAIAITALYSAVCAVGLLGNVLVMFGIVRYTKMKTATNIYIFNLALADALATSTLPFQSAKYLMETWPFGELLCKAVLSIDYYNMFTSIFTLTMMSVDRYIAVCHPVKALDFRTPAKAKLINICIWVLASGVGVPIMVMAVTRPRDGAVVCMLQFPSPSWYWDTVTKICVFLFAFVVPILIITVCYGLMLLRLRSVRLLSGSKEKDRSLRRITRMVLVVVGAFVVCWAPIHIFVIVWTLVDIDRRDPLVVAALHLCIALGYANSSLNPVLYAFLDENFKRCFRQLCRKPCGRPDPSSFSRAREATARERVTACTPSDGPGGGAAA

[28] = biological target: 5-hydroxytryptamine receptor 5A (Homo sapiens, UniProt P47898); test: Counterscreen for agonists of OPRM1-OPRD1 heterodimerization: luminescence-based cell-based high throughput dose response assay to identify agonists of 5-hydroxytryptamine (serotonin) 5A receptor (HTR5A). [Related pubchem assays (depositor defined):AID504326, AID504355, AID504692, AID504904, AID504905]; type: functional
Sequence of 5-hydroxytryptamine receptor 5A (P47898 whole entry): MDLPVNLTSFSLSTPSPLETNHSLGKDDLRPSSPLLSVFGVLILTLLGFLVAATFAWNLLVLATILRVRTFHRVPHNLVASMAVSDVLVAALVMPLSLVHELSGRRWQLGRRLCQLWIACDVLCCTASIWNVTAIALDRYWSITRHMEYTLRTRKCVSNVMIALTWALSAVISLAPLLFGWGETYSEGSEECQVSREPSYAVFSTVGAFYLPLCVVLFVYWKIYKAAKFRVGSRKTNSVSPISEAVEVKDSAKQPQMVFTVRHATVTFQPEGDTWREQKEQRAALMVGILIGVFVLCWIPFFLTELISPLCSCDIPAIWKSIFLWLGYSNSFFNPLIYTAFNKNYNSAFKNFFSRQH

COc1ccccc1/C=C1\SC(=S)N(NS(=O)(=O)c2ccccc2)C1=O
EC50 [1]: 18.2 µM (active) | EC50 [2]: > 150 µM (inconclusive) | EC50 [3]: > 180 µM (inactive) | EC50 [4]: 0.94 µM (active) | IC50 [5]: 36.2 µM (active)

COc1ccc(-c2cc(-c3ccccc3)c(C#N)c([S+](C)[O-])n2)cc1 (stereo unspecified)
IC50 [6]: 2.76 µM (active) | IC50 [7]: 2.05 µM (active) | AC50 [8]: 11.8 µM (active) | EC50 [9]: 2.12 µM (active) | AC50 [10]: 4.89 µM (active) | CC50 [11]: 23 µM (active) | CC50 [12]: 31.4 µM (active) | AC50 [13]: 20.2 µM (active) | EC50 [14]: 3.33 µM (active)

COc1ccc(Nc2[nH]nc(N)c2C(N)=O)cc1
IC50 [15]: > 67.5 µM (inactive) | IC50 [16]: > 67.5 µM (inactive) | AC50 [17]: 2.71 µM (active)

Cc1nc(-c2ccncc2)nc(NCCNc2ccc(C(F)(F)F)cn2)c1Cl
IC50 [15]: > 67.5 µM (inactive) | IC50 [16]: > 67.5 µM (inactive) | EC50 [18]: > 53 µM (inactive) | IC50 [19]: > 47.1 µM (inactive)

CCCn1nnnc1NC(=O)c1ccc2ccccc2c1
CC50 [20]: > 20 µM (active) | EC50 [21]: > 150 µM (not active) | EC50 [22]: 1.59 µM (active) | IC50 [23]: 0.9 µM (active) | EC50 [1]: 82.2 µM (active) | CC50 [24]: 39.5 µM (active) | EC50 [2]: 121 µM (active) | EC50 [25]: > 150 µM (not active) | EC50 [3]: > 180 µM (inactive) | EC50 [4]: 0.505 µM (active)

C/C(CC(=O)Nc1ccc(Cl)cc1C(F)(F)F)=N\NC(=O)c1cccs1
IC50 [15]: > 67.6 µM (inactive) | IC50 [16]: > 67.6 µM (inactive)

OCC1(CCc2ccccc2)CCN(Cc2cc(F)ccc2-n2cccn2)CC1
EC50 [26]: > 92.5 µM (inactive) | EC50 [27]: > 92.5 µM (inactive) | EC50 [28]: > 92.5 µM (inactive)
